{"source": "patent US11731942B1", "about": "“3-substituted quinolin-2-one compounds as antibacterial agents” (KING FAISAL UNIVERSITY, priority 2023, dated 2023)", "key": {"[1]": {"test_system": "Enterococcus faecium ATCC 51559 (VRE resistant)", "assay": "In vitro antibacterial activity (CLSI M07-A10 dilution), MIC", "format": "cell-based"}, "[2]": {"test_system": "Escherichia coli MTCC 443", "assay": "In vitro antibacterial activity (CLSI M07-A10 dilution), MIC", "format": "cell-based", "conditions": "MTCC443"}, "[3]": {"test_system": "Enterococcus faecium ATCC 35667", "assay": "In vitro antibacterial activity (CLSI M07-A10 dilution), MIC", "format": "cell-based", "conditions": "ATCC35667"}, "[4]": {"test_system": "Bacillus subtilis MTCC 441", "assay": "In vitro antibacterial activity (CLSI M07-A10 dilution), MIC", "format": "cell-based", "conditions": "MTCC441"}, "[5]": {"test_system": "Staphylococcus aureus ATCC 29213", "assay": "In vitro antibacterial activity (CLSI M07-A10 dilution), MIC", "format": "cell-based", "conditions": "ATCC29213"}, "[6]": {"test_system": "Klebsiella pneumonia MTCC 618", "assay": "In vitro antibacterial activity (CLSI M07-A10 dilution), MIC", "format": "cell-based", "conditions": "Klebsiella pneumoniae, MTCC618"}, "[7]": {"test_system": "Staphylococcus aureus ATCC BAA-1556 (MERSA resistant)", "assay": "In vitro antibacterial activity (CLSI M07-A10 dilution), MIC", "format": "cell-based", "conditions": "ATCCBAA1556"}, "[8]": {"test_system": "Pseudomonas aeruginosa MTCC 741", "assay": "In vitro antibacterial activity (CLSI M07-A10 dilution), MIC", "format": "cell-based", "conditions": "MTCC741"}, "[9]": {"test_system": "Staphylococcus epidermidis", "assay": "In vitro antibacterial activity (CLSI M07-A10 dilution), MIC", "format": "cell-based"}, "[10]": {"test_system": "H37Rv type of M. tuberculosis strains", "assay": "Anti-tubercular alamar blue microplate MIC", "format": "cell-based", "conditions": "168 h, mycobacterium tuberculosis H37Rv strain, 7 days at 37° C., read-out: anti-mycobacterial activity (MIC)"}, "[11]": {"target": "T1, E. coli DNA Gyrase (Escherichia coli, UniProt P0AES4+P0AES6)", "T1 construct": "purchased Inspiralis", "T1 sequence (P0AES4 whole entry, one chain of several)": "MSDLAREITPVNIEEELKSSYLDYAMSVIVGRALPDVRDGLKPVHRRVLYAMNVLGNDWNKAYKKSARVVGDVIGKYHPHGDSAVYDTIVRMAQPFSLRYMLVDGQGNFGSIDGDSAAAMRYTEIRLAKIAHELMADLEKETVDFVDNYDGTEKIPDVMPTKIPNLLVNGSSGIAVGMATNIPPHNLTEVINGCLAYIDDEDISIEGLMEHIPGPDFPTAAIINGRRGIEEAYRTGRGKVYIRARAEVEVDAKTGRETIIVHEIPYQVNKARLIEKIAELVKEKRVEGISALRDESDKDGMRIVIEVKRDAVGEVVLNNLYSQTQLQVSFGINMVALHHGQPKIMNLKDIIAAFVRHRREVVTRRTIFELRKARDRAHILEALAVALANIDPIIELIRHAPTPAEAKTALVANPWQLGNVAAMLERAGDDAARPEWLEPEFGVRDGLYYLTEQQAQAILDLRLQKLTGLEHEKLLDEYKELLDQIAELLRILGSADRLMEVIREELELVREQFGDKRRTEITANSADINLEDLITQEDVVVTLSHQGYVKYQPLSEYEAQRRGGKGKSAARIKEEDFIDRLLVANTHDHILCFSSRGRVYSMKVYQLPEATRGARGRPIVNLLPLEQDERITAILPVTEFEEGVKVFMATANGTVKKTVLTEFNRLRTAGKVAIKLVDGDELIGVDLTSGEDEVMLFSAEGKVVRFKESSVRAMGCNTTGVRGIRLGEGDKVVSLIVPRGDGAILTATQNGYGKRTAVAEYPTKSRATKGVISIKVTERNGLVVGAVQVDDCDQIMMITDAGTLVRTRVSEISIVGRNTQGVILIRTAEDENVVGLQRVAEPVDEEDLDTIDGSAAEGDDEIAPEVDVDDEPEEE", "assay": "Inspiralis DNA gyrase inhibition assay", "format": "biochemical", "experimental": "Inhibitory potencies were investigated utilizing the Inspiralis assay on streptavidin-coated 96-well microtiter plates. First, the plates were rehydrated with buffer (20 mM Tris-HCl with pH 7.6, 0.01% w/v BSA, 0.05% v/v Tween 20, 137 mM NaCl) and the biotinylated oligonucleotide was then immobilized. After washing off the unbound oligonucleotide, the enzyme test was performed. The reaction volume of 30 μL in buffer (35 mM Tris×HCl with pH 7.5, 4 mM MgCl2, 24 mM KCl, 2 mM DTT, 1.8 mM spermidine, 1 mM ATP, 6.5% w/v glycerol, 0.1 mg/mL albumin) contained 1.5 U of DNA gyrase from E. coli, 0.75 μg of relaxed pNO1 plasmid, and 3 μL solution of the inhibitor in 10% DMSO and 0.008% Tween 20. Reaction solutions were incubated at 37° C. for 30 min. After that, the TF buffer (50 mM NaOAc with pH 5.0, 50 mM NaCl and 50 mM MgCl2) was added to terminate the enzymatic reaction. After additional incubation for 30 min at rt, during which biotinoligonucleotide-plasmid triplex was formed, the unbound plasmid was washed off using TF buffer and SybrGOLD in T10 buffer (10 mM Tris HCl with pH 8.0 and 1 mM EDTA) was added. The fluorescence was measured with a microplate reader (BioTek Synergy H4, excitation: 485 nm, emission: 535 nm). Initial screening was done at 100 or 10 μM concentration of inhibitors. […] GraphPad Prism software was used to calculate the IC50 values. […]"}}, "note": "Like-named read-outs stand apart in the source and are kept apart here.", "data": [{"smiles": "CN[C@H](CC(C)C)C(=O)N[C@H]1C(=O)N[C@@H](CC(N)=O)C(=O)N[C@H]2C(=O)N[C@H]3C(=O)N[C@H](C(=O)N[C@H](C(=O)O)c4cc(O)cc(O)c4-c4cc3ccc4O)[C@H](O)c3ccc(c(Cl)c3)Oc3cc2cc(c3O[C@@H]2O[C@H](CO)[C@@H](O)[C@H](O)[C@H]2O[C@H]2C[C@](C)(N)[C@H](O)[C@H](C)O2)Oc2ccc(cc2Cl)[C@H]1O", "note": "[Vancomycin, reference compound]", "values": [{"measurement": "MIC", "setting": "[1]; Enterococcus faecium", "result": "> 128", "unit": "µg/mL"}, {"measurement": "MIC", "setting": "[2]; Escherichia coli", "result": "> 128", "unit": "µg/mL"}, {"measurement": "MIC", "setting": "[3]; Enterococcus faecium", "result": 0.5, "unit": "µg/mL"}, {"measurement": "MIC", "setting": "[4]; Bacillus subtilis", "result": 0.5, "unit": "µg/mL"}, {"measurement": "MIC", "setting": "[5]; Staphylococcus aureus", "result": 1, "unit": "µg/mL"}, {"measurement": "MIC", "setting": "[6]", "result": "> 128", "unit": "µg/mL"}, {"measurement": "MIC", "setting": "[7]; Staphylococcus aureus", "result": 1, "unit": "µg/mL"}, {"measurement": "MIC", "setting": "[8]; Pseudomonas aeruginosa", "result": "> 128", "unit": "µg/mL"}, {"measurement": "MIC", "setting": "[9]", "result": 1, "unit": "µg/mL"}]}, {"smiles": "CCCCCN(C)Cc1cc(C(=O)O)ccc1/C=C/C(=O)c1cc2cc(F)cc(NC)c2[nH]c1=O", "note": "[Compound 7, (E)-4-(3-(6-fluoro-8-(methylamino)-2-oxo-1,2-dihydroquinolin-3-yl)-3-oxoprop-1-en-1-yl)-3-((methyl(pentyl)amino)methyl)benzoic acid]", "values": [{"measurement": "MIC", "setting": "[1]; Enterococcus faecium ATCC 51559 (VRE resistant), read-out: MIC", "result": 0.25, "unit": "µg/mL"}, {"measurement": "MIC", "setting": "[2]; Escherichia coli MTCC 443, read-out: MIC", "result": 1, "unit": "µg/mL"}, {"measurement": "MIC", "setting": "[3]; Enterococcus faecium ATCC 35667, read-out: MIC", "result": 0.25, "unit": "µg/mL"}, {"measurement": "MIC", "setting": "[10]", "result": 4, "unit": "µg/mL"}, {"measurement": "MIC", "setting": "[4]; Bacillus subtilis MTCC 441, read-out: MIC", "result": 0.25, "unit": "µg/mL"}, {"measurement": "MIC", "setting": "[5]; Staphylococcus aureus ATCC 29213, read-out: MIC", "result": 0.5, "unit": "µg/mL"}, {"measurement": "MIC", "setting": "[6]; Klebsiella pneumonia MTCC 618, read-out: MIC", "result": 0.5, "unit": "µg/mL"}, {"measurement": "IC50", "setting": "[11]", "result": 12, "unit": "nM"}, {"measurement": "MIC", "setting": "[7]; Staphylococcus aureus ATCC BAA-1556 (MERSA resistant), read-out: MIC", "result": 0.5, "unit": "µg/mL"}, {"measurement": "MIC", "setting": "[8]; Pseudomonas aeruginosa MTCC 741, read-out: MIC", "result": 0.25, "unit": "µg/mL"}, {"measurement": "MIC", "setting": "[9]; read-out: MIC", "result": 0.5, "unit": "µg/mL"}]}]}
